Assay [1] relates to T1, horseradish peroxidase (HRP).
T1 construct: gene PRXC1A
The conditions noted are these: free enzyme; 50 mM phosphate buffer pH 7; co-substrate H2O2 (10 mM); apparent.

Assay [2] relates to T2, laccase.
T2 construct: gene LCC2
The conditions noted are these: free enzyme; 50 mM acetate buffer pH 5; apparent.

Counter-ions that a name gives are not always drawn.

The term Km denotes the substrate concentration at which the rate is half of its maximum. Consider `CCn1c(=NN=c2sc3cc(S(=O)(=O)O)ccc3n2CC)sc2cc(S(=O)(=O)O)ccc21` [2,2′-azino-bis(3-ehylbenzothiazoline-6-sulfonic acid), diammonium salt], for which the Michaelis constant (Km) was 1330 µM in assay [1] and 87 µM in assay [2].

(Values after paper PMC9699638, “Study of Membrane-Immobilized Oxidoreductases in Wastewater Treatment for Micropollutants Removal” (International Journal of Molecular Sciences, 2022).)
